Data taken from PubChem BioAssay (NCI).
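GI50 is the concentration that inhibits growth by half. TGI is the concentration that stops growth completely.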

How the values were obtained:
Test in all cases: growth of human tumour cells (NCI), 384-well format
IGROV1 ovarian = test system: IGROV1 ovarian
NCI-H226 lung = test system: NCI-H226 lung
SN12C renal = test system: SN12C renal
DU-145 prostate = test system: DU-145 prostate
HOP-62 NSCLC = test system: HOP-62 NSCLC
786-0 renal = test system: 786-0 renal
M14 melanoma = test system: M14 melanoma
PC-3 prostate = test system: PC-3 prostate
SF-295 CNS = test system: SF-295 CNS
SK-MEL-5 melanoma = test system: SK-MEL-5 melanoma
OVCAR-4 ovarian = test system: OVCAR-4 ovarian
SK-MEL-28 melanoma = test system: SK-MEL-28 melanoma
HT29 colon = test system: HT29 colon
BT-549 breast = test system: BT-549 breast
MOLT-4 leukemia = test system: MOLT-4 leukemia
A549 NSCLC = test system: A549 NSCLC
LOX IMVI melanoma = test system: LOX IMVI melanoma
HCT-116 colon = test system: HCT-116 colon
MCF7 breast = test system: MCF7 breast
T-47D breast = test system: T-47D breast
CAKI-1 renal = test system: CAKI-1 renal
NCI-H522 lung = test system: NCI-H522 lung
UACC-257 melanoma = test system: UACC-257 melanoma
COLO 205 colon = test system: COLO 205 colon
HCT-15 colon = test system: HCT-15 colon
RPMI-8226 leukemia = test system: RPMI-8226 leukemia
UACC-62 melanoma = test system: UACC-62 melanoma
CCRF-CEM leukemia = test system: CCRF-CEM leukemia
SNB-19 CNS = test system: SNB-19 CNS
MDA-MB-231 breast = test system: MDA-MB-231 breast
OVCAR-5 ovarian = test system: OVCAR-5 ovarian
KM12 colon = test system: KM12 colon
HCC-2998 colon = test system: HCC-2998 colon
RXF 393 renal = test system: RXF 393 renal
ACHN renal = test system: ACHN renal
A498 renal = test system: A498 renal
HOP-92 NSCLC = test system: HOP-92 NSCLC
NCI-H322M lung = test system: NCI-H322M lung
HS 578T breast = test system: HS 578T breast
UO-31 renal = test system: UO-31 renal
TK-10 renal = test system: TK-10 renal
SK-OV-3 ovarian = test system: SK-OV-3 ovarian
K-562 leukemia = test system: K-562 leukemia
MDA-MB-435 melanoma = test system: MDA-MB-435 melanoma
SNB-75 CNS = test system: SNB-75 CNS
OVCAR-3 ovarian = test system: OVCAR-3 ovarian
NCI-H23 lung = test system: NCI-H23 lung
EKVX NSCLC = test system: EKVX NSCLC
OVCAR-8 ovarian = test system: OVCAR-8 ovarian
HL-60(TB) leukemia = test system: HL-60(TB) leukemia
NCI-H460 NSCLC = test system: NCI-H460 NSCLC
NCI/ADR-RES ovarian = test system: NCI/ADR-RES ovarian
MALME-3M melanoma = test system: MALME-3M melanoma

Compound: COc1cc(S(C)(=O)=O)ccc1Nc1nc2ccc(-c3ccc(NC(=O)[C@H](C)c4ccc(F)cc4)cc3)cn2n1
- GI50 (IGROV1 ovarian): > 100 µM
- TGI (IGROV1 ovarian): > 100 µM
- GI50 (NCI-H226 lung): > 100 µM
- TGI (NCI-H226 lung): > 100 µM
- GI50 (SN12C renal): > 100 µM
- TGI (SN12C renal): > 100 µM
- GI50 (DU-145 prostate): 5.41 µM
- TGI (DU-145 prostate): > 100 µM
- GI50 (HOP-62 NSCLC): 0.0771 µM
- TGI (HOP-62 NSCLC): > 100 µM
- GI50 ([…]-0 renal): 1.73 µM
- TGI (786-0 renal): > 100 µM
- GI50 (M14 melanoma): > 100 µM
- TGI (M14 melanoma): > 100 µM
- GI50 (PC-3 prostate): 69 µM
- TGI (PC-3 prostate): > 100 µM
- GI50 (SF-295 CNS): > 100 µM
- TGI (SF-295 CNS): > 100 µM
- GI50 (SK-MEL-5 melanoma): 1.54 µM
- TGI (SK-MEL-5 melanoma): > 100 µM
- GI50 (OVCAR-4 ovarian): > 100 µM
- TGI (OVCAR-4 ovarian): > 100 µM
- GI50 (SK-MEL-28 melanoma): > 100 µM
- TGI (SK-MEL-28 melanoma): > 100 µM
- GI50 (HT29 colon): 0.602 µM
- TGI (HT29 colon): > 100 µM
- GI50 (BT-549 breast): 32.5 µM
- TGI (BT-549 breast): > 100 µM
- GI50 (MOLT-4 leukemia): 0.0201 µM
- TGI (MOLT-4 leukemia): 0.0417 µM
- GI50 (A549 NSCLC): 0.0517 µM
- TGI (A549 NSCLC): > 100 µM
- GI50 (LOX IMVI melanoma): 0.053 µM
- TGI (LOX IMVI melanoma): > 100 µM
- GI50 (HCT-116 colon): 0.0642 µM
- TGI (HCT-116 colon): > 100 µM
- GI50 (MCF7 breast): 4.61 µM
- TGI (MCF7 breast): > 100 µM
- GI50 (T-47D breast): 4.78 µM
- TGI (T-47D breast): > 100 µM
- GI50 (CAKI-1 renal): > 100 µM
- TGI (CAKI-1 renal): > 100 µM
- GI50 (NCI-H522 lung): > 100 µM
- TGI (NCI-H522 lung): > 100 µM
- GI50 (UACC-257 melanoma): > 100 µM
- TGI (UACC-257 melanoma): > 100 µM
- GI50 (COLO 205 colon): 0.0428 µM
- TGI (COLO 205 colon): > 100 µM
- GI50 (HCT-15 colon): 0.0587 µM
- TGI (HCT-15 colon): > 100 µM
- GI50 (RPMI-8226 leukemia): 0.137 µM
- TGI (RPMI-8226 leukemia): > 100 µM
- GI50 (UACC-62 melanoma): > 100 µM
- TGI (UACC-62 melanoma): > 100 µM
- GI50 (CCRF-CEM leukemia): 0.0293 µM
- TGI (CCRF-CEM leukemia): 0.0694 µM
- GI50 (SNB-19 CNS): > 100 µM
- TGI (SNB-19 CNS): > 100 µM
- GI50 (MDA-MB-231 breast): > 100 µM
- TGI (MDA-MB-231 breast): > 100 µM
- GI50 (OVCAR-5 ovarian): > 100 µM
- TGI (OVCAR-5 ovarian): > 100 µM
- GI50 (KM12 colon): 61.7 µM
- TGI (KM12 colon): > 100 µM
- GI50 (HCC-2998 colon): > 100 µM
- TGI (HCC-2998 colon): > 100 µM
- GI50 (RXF 393 renal): 0.0742 µM
- TGI (RXF 393 renal): 6.48 µM
- GI50 (ACHN renal): > 100 µM
- TGI (ACHN renal): > 100 µM
- GI50 (A498 renal): > 100 µM
- TGI (A498 renal): > 100 µM
- GI50 (HOP-92 NSCLC): 42.1 µM
- TGI (HOP-92 NSCLC): > 100 µM
- GI50 (NCI-H322M lung): > 100 µM
- TGI (NCI-H322M lung): > 100 µM
- GI50 (HS 578T breast): 17.4 µM
- TGI (HS 578T breast): > 100 µM
- GI50 (UO-31 renal): 22.4 µM
- TGI (UO-31 renal): > 100 µM
- GI50 (TK-10 renal): > 100 µM
- TGI (TK-10 renal): > 100 µM
- GI50 (SK-OV-3 ovarian): > 100 µM
- TGI (SK-OV-3 ovarian): > 100 µM
- GI50 (K-562 leukemia): 0.777 µM
- TGI (K-562 leukemia): > 100 µM
- GI50 (MDA-MB-435 melanoma): > 100 µM
- TGI (MDA-MB-435 melanoma): > 100 µM
- GI50 (SNB-75 CNS): 75.9 µM
- TGI (SNB-75 CNS): > 100 µM
- GI50 (OVCAR-3 ovarian): > 100 µM
- TGI (OVCAR-3 ovarian): > 100 µM
- GI50 (NCI-H23 lung): > 100 µM
- TGI (NCI-H23 lung): > 100 µM
- GI50 (EKVX NSCLC): > 100 µM
- TGI (EKVX NSCLC): > 100 µM
- GI50 (OVCAR-8 ovarian): 1.19 µM
- TGI (OVCAR-8 ovarian): > 100 µM
- GI50 (HL-60(TB) leukemia): 0.0454 µM
- TGI (HL-60(TB) leukemia): > 100 µM
- GI50 (NCI-H460 NSCLC): 0.0406 µM
- TGI (NCI-H460 NSCLC): > 100 µM
- GI50 (NCI/ADR-RES ovarian): 1.4 µM
- TGI (NCI/ADR-RES ovarian): > 100 µM
- GI50 (MALME-3M melanoma): 58.2 µM
- TGI (MALME-3M melanoma): > 100 µM
